# Assay results reported in ChEMBL document CHEMBL5724914, “Linking interpersonal differences in gut microbiota composition and drug biotransformation activity” (2024).
# Assay: (§1) The drug is tested on Z-009 corresponding to pig gut metagenome with ENA study accession number: PRJEB37062 and ENA sample accession number: ERS12561809 for biotransformation under anaerobic condition. The drug concentrations were measured over 9 timepoints collected between 0 and 24 hours of incubation by liquid-chromatography-coupled mass spectrometry (LC–MS)
# Conditions: 2 µM
# Further: call rule not given here.
row,Structure (SMILES),Bacterial Biotransformation
1,Cc1ccc(-c2nc3ccc(C)cn3c2CC(=O)N(C)C)cc1 [ZOLPIDEM],Compound metabolized
2,Nc1nc2ccc(OC(F)(F)F)cc2s1 [RILUZOLE],Compound metabolized
3,CC(C)NCC(O)c1ccc(NS(C)(=O)=O)cc1 (configuration not stated) [SOTALOL],Compound NOT metabolized
4,CCN1CCCC1CNC(=O)c1cc(S(N)(=O)=O)ccc1OC (configuration not stated) [SULPIRIDE],Compound metabolized
5,CC(=O)CC(c1ccccc1)c1c(O)c2ccccc2oc1=O (configuration not stated) [WARFARIN],Compound metabolized
6,COCCc1ccc(OCC(O)CNC(C)C)cc1.COCCc1ccc(OCC(O)CNC(C)C)cc1.O=C(O)C(O)C(O)C(=O)O (configuration not stated) [METOPROLOL TARTRATE],Compound NOT metabolized
7,COc1ccc2c(c1OC)C(=O)O[C@@H]2[C@H]1c2c(cc3c(c2OC)OCO3)CCN1C [NOSCAPINE],Compound metabolized
8,Br.CN(C)CCCC1(c2ccc(F)cc2)OCc2cc(C#N)ccc21 (configuration not stated) [CITALOPRAM HYDROBROMIDE],Compound metabolized

# Conditions: human gut metagenome, 24 h, 2 µM
row,Structure (SMILES),Bacterial Biotransformation
1,Cc1ccc(-c2nc3ccc(C)cn3c2CC(=O)N(C)C)cc1 [ZOLPIDEM],Compound metabolized
2,Nc1nc2ccc(OC(F)(F)F)cc2s1 [RILUZOLE],Compound metabolized
3,CC(C)NCC(O)c1ccc(NS(C)(=O)=O)cc1 (configuration not stated) [SOTALOL],Compound NOT metabolized
4,CCN1CCCC1CNC(=O)c1cc(S(N)(=O)=O)ccc1OC (configuration not stated) [SULPIRIDE],Compound metabolized
5,CC(=O)CC(c1ccccc1)c1c(O)c2ccccc2oc1=O (configuration not stated) [WARFARIN],Compound metabolized
6,COCCc1ccc(OCC(O)CNC(C)C)cc1.COCCc1ccc(OCC(O)CNC(C)C)cc1.O=C(O)C(O)C(O)C(=O)O (configuration not stated) [METOPROLOL TARTRATE],Compound metabolized
7,COc1ccc2c(c1OC)C(=O)O[C@@H]2[C@H]1c2c(cc3c(c2OC)OCO3)CCN1C [NOSCAPINE],Compound metabolized
8,Br.CN(C)CCCC1(c2ccc(F)cc2)OCc2cc(C#N)ccc21 (configuration not stated) [CITALOPRAM HYDROBROMIDE],Compound metabolized

# Conditions: human gut metagenome, 24 h, 2 µM
# Remark: another data set of the same source
row,Structure (SMILES),Bacterial Biotransformation
1,Cc1ccc(-c2nc3ccc(C)cn3c2CC(=O)N(C)C)cc1 [ZOLPIDEM],Compound metabolized
2,Nc1nc2ccc(OC(F)(F)F)cc2s1 [RILUZOLE],Compound metabolized
3,CC(C)NCC(O)c1ccc(NS(C)(=O)=O)cc1 (configuration not stated) [SOTALOL],Compound NOT metabolized
4,CCN1CCCC1CNC(=O)c1cc(S(N)(=O)=O)ccc1OC (configuration not stated) [SULPIRIDE],Compound NOT metabolized
5,CC(=O)CC(c1ccccc1)c1c(O)c2ccccc2oc1=O (configuration not stated) [WARFARIN],Compound metabolized
6,COCCc1ccc(OCC(O)CNC(C)C)cc1.COCCc1ccc(OCC(O)CNC(C)C)cc1.O=C(O)C(O)C(O)C(=O)O (configuration not stated) [METOPROLOL TARTRATE],Compound NOT metabolized
7,COc1ccc2c(c1OC)C(=O)O[C@@H]2[C@H]1c2c(cc3c(c2OC)OCO3)CCN1C [NOSCAPINE],Compound NOT metabolized
8,Br.CN(C)CCCC1(c2ccc(F)cc2)OCc2cc(C#N)ccc21 (configuration not stated) [CITALOPRAM HYDROBROMIDE],Compound NOT metabolized

# Assay: as §1, with “WLS-006” for “Z-009”, “human” for “pig”, “ERS12561741” for “ERS12561809”
# Conditions: 2 µM
row,Structure (SMILES),Bacterial Biotransformation
1,Cc1ccc(-c2nc3ccc(C)cn3c2CC(=O)N(C)C)cc1 [ZOLPIDEM],Compound NOT metabolized
2,Nc1nc2ccc(OC(F)(F)F)cc2s1 [RILUZOLE],Compound metabolized
3,CC(C)NCC(O)c1ccc(NS(C)(=O)=O)cc1 (configuration not stated) [SOTALOL],Compound NOT metabolized
4,CCN1CCCC1CNC(=O)c1cc(S(N)(=O)=O)ccc1OC (configuration not stated) [SULPIRIDE],Compound metabolized
5,CC(=O)CC(c1ccccc1)c1c(O)c2ccccc2oc1=O (configuration not stated) [WARFARIN],Compound metabolized
6,COCCc1ccc(OCC(O)CNC(C)C)cc1.COCCc1ccc(OCC(O)CNC(C)C)cc1.O=C(O)C(O)C(O)C(=O)O (configuration not stated) [METOPROLOL TARTRATE],Compound NOT metabolized
7,COc1ccc2c(c1OC)C(=O)O[C@@H]2[C@H]1c2c(cc3c(c2OC)OCO3)CCN1C [NOSCAPINE],Compound metabolized
8,Br.CN(C)CCCC1(c2ccc(F)cc2)OCc2cc(C#N)ccc21 (configuration not stated) [CITALOPRAM HYDROBROMIDE],Compound metabolized

# Assay: as §1, with “WLS-069” for “Z-009”, “human” for “pig”, “ERS12561748” for “ERS12561809”
# Conditions: 2 µM
row,Structure (SMILES),Bacterial Biotransformation
1,Cc1ccc(-c2nc3ccc(C)cn3c2CC(=O)N(C)C)cc1 [ZOLPIDEM],Compound NOT metabolized
2,Nc1nc2ccc(OC(F)(F)F)cc2s1 [RILUZOLE],Compound metabolized
3,CC(C)NCC(O)c1ccc(NS(C)(=O)=O)cc1 (configuration not stated) [SOTALOL],Compound NOT metabolized
4,CCN1CCCC1CNC(=O)c1cc(S(N)(=O)=O)ccc1OC (configuration not stated) [SULPIRIDE],Compound metabolized
5,CC(=O)CC(c1ccccc1)c1c(O)c2ccccc2oc1=O (configuration not stated) [WARFARIN],Compound metabolized
6,COCCc1ccc(OCC(O)CNC(C)C)cc1.COCCc1ccc(OCC(O)CNC(C)C)cc1.O=C(O)C(O)C(O)C(=O)O (configuration not stated) [METOPROLOL TARTRATE],Compound NOT metabolized
7,COc1ccc2c(c1OC)C(=O)O[C@@H]2[C@H]1c2c(cc3c(c2OC)OCO3)CCN1C [NOSCAPINE],Compound metabolized
8,Br.CN(C)CCCC1(c2ccc(F)cc2)OCc2cc(C#N)ccc21 (configuration not stated) [CITALOPRAM HYDROBROMIDE],Compound metabolized

# Conditions: human gut metagenome, 24 h, 2 µM
# Remark: another data set of the same source
row,Structure (SMILES),Bacterial Biotransformation
1,Cc1ccc(-c2nc3ccc(C)cn3c2CC(=O)N(C)C)cc1 [ZOLPIDEM],Compound NOT metabolized
2,Nc1nc2ccc(OC(F)(F)F)cc2s1 [RILUZOLE],Compound metabolized
3,CC(C)NCC(O)c1ccc(NS(C)(=O)=O)cc1 (configuration not stated) [SOTALOL],Compound NOT metabolized
4,CCN1CCCC1CNC(=O)c1cc(S(N)(=O)=O)ccc1OC (configuration not stated) [SULPIRIDE],Compound NOT metabolized
5,CC(=O)CC(c1ccccc1)c1c(O)c2ccccc2oc1=O (configuration not stated) [WARFARIN],Compound metabolized
6,COCCc1ccc(OCC(O)CNC(C)C)cc1.COCCc1ccc(OCC(O)CNC(C)C)cc1.O=C(O)C(O)C(O)C(=O)O (configuration not stated) [METOPROLOL TARTRATE],Compound metabolized
7,COc1ccc2c(c1OC)C(=O)O[C@@H]2[C@H]1c2c(cc3c(c2OC)OCO3)CCN1C [NOSCAPINE],Compound NOT metabolized
8,Br.CN(C)CCCC1(c2ccc(F)cc2)OCc2cc(C#N)ccc21 (configuration not stated) [CITALOPRAM HYDROBROMIDE],Compound metabolized

# Conditions: human gut metagenome, 24 h, 2 µM
# Remark: another data set of the same source
row,Structure (SMILES),Bacterial Biotransformation
1,Cc1ccc(-c2nc3ccc(C)cn3c2CC(=O)N(C)C)cc1 [ZOLPIDEM],Compound metabolized
2,Nc1nc2ccc(OC(F)(F)F)cc2s1 [RILUZOLE],Compound metabolized
3,CC(C)NCC(O)c1ccc(NS(C)(=O)=O)cc1 (configuration not stated) [SOTALOL],Compound NOT metabolized
4,CCN1CCCC1CNC(=O)c1cc(S(N)(=O)=O)ccc1OC (configuration not stated) [SULPIRIDE],Compound NOT metabolized
5,CC(=O)CC(c1ccccc1)c1c(O)c2ccccc2oc1=O (configuration not stated) [WARFARIN],Compound metabolized
6,COCCc1ccc(OCC(O)CNC(C)C)cc1.COCCc1ccc(OCC(O)CNC(C)C)cc1.O=C(O)C(O)C(O)C(=O)O (configuration not stated) [METOPROLOL TARTRATE],Compound NOT metabolized
7,COc1ccc2c(c1OC)C(=O)O[C@@H]2[C@H]1c2c(cc3c(c2OC)OCO3)CCN1C [NOSCAPINE],Compound NOT metabolized
8,Br.CN(C)CCCC1(c2ccc(F)cc2)OCc2cc(C#N)ccc21 (configuration not stated) [CITALOPRAM HYDROBROMIDE],Compound metabolized

# Conditions: human gut metagenome, 24 h, 2 µM
# Remark: another data set of the same source
row,Structure (SMILES),Bacterial Biotransformation
1,Cc1ccc(-c2nc3ccc(C)cn3c2CC(=O)N(C)C)cc1 [ZOLPIDEM],Compound metabolized
2,Nc1nc2ccc(OC(F)(F)F)cc2s1 [RILUZOLE],Compound metabolized
3,CC(C)NCC(O)c1ccc(NS(C)(=O)=O)cc1 (configuration not stated) [SOTALOL],Compound NOT metabolized
4,CCN1CCCC1CNC(=O)c1cc(S(N)(=O)=O)ccc1OC (configuration not stated) [SULPIRIDE],Compound metabolized
5,CC(=O)CC(c1ccccc1)c1c(O)c2ccccc2oc1=O (configuration not stated) [WARFARIN],Compound metabolized
6,COCCc1ccc(OCC(O)CNC(C)C)cc1.COCCc1ccc(OCC(O)CNC(C)C)cc1.O=C(O)C(O)C(O)C(=O)O (configuration not stated) [METOPROLOL TARTRATE],Compound metabolized
7,COc1ccc2c(c1OC)C(=O)O[C@@H]2[C@H]1c2c(cc3c(c2OC)OCO3)CCN1C [NOSCAPINE],Compound NOT metabolized
8,Br.CN(C)CCCC1(c2ccc(F)cc2)OCc2cc(C#N)ccc21 (configuration not stated) [CITALOPRAM HYDROBROMIDE],Compound metabolized

# Assay: as §1, with “WLS-077” for “Z-009”, “human” for “pig”, “ERS12561750” for “ERS12561809”
# Conditions: 2 µM
row,Structure (SMILES),Bacterial Biotransformation
1,Cc1ccc(-c2nc3ccc(C)cn3c2CC(=O)N(C)C)cc1 [ZOLPIDEM],Compound NOT metabolized
2,Nc1nc2ccc(OC(F)(F)F)cc2s1 [RILUZOLE],Compound metabolized
3,CC(C)NCC(O)c1ccc(NS(C)(=O)=O)cc1 (configuration not stated) [SOTALOL],Compound NOT metabolized
4,CCN1CCCC1CNC(=O)c1cc(S(N)(=O)=O)ccc1OC (configuration not stated) [SULPIRIDE],Compound metabolized
5,CC(=O)CC(c1ccccc1)c1c(O)c2ccccc2oc1=O (configuration not stated) [WARFARIN],Compound metabolized
6,COCCc1ccc(OCC(O)CNC(C)C)cc1.COCCc1ccc(OCC(O)CNC(C)C)cc1.O=C(O)C(O)C(O)C(=O)O (configuration not stated) [METOPROLOL TARTRATE],Compound NOT metabolized
7,COc1ccc2c(c1OC)C(=O)O[C@@H]2[C@H]1c2c(cc3c(c2OC)OCO3)CCN1C [NOSCAPINE],Compound metabolized
8,Br.CN(C)CCCC1(c2ccc(F)cc2)OCc2cc(C#N)ccc21 (configuration not stated) [CITALOPRAM HYDROBROMIDE],Compound NOT metabolized
